Experimental data as given in ChEMBL document CHEMBL1201862, “PubChem BioAssay data set” (2004).
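Values below derive from 48-hour exposures of cells grown in 96-well plates, with endpoints linearly interpolated between the two concentrations bracketing the appropriate inhibition level. At the GI50, growth is halved.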 Active and inactive are the calls of the source. Cut-off read from the data, not from the text of the source: active = GI50 up to about 1.1 µM and inactive = higher.

What was measured:
Assay in all cases: NCI-60 cell line screen, 48 h
UACC-257 = tested on: UACC-257
ACHN = tested on: ACHN
M14 = tested on: M14
UO-31 = tested on: UO-31
HOP-62 = tested on: HOP-62
OVCAR-4 = tested on: OVCAR-4
SW-620 = tested on: SW-620
OVCAR-3 = tested on: OVCAR-3
TK-10 = tested on: TK-10
SK-OV-3 = tested on: SK-OV-3
SR = tested on: SR
CCRF-CEM = tested on: CCRF-CEM
OVCAR-8 = tested on: OVCAR-8
SK-MEL-5 = tested on: SK-MEL-5
SN12C = tested on: SN12C
SNB-78 = tested on: SNB-78
UACC-62 = tested on: UACC-62
PC-3 = tested on: PC-3
Hs-578T = tested on: Hs-578T
MDA-N = tested on: MDA-N

Compound	GI50 (UACC-257)	GI50 (ACHN)	GI50 (M14)	GI50 (UO-31)	GI50 (HOP-62)	GI50 (OVCAR-4)	GI50 (SW-620)	GI50 (OVCAR-3)	GI50 (TK-10)	GI50 (SK-OV-3)	GI50 (SR)	GI50 (CCRF-CEM)	GI50 (OVCAR-8)	GI50 (SK-MEL-5)	GI50 (SN12C)	GI50 (SNB-78)	GI50 (UACC-62)	GI50 (PC-3)	GI50 (Hs-578T)	GI50 (MDA-N)
CC(C)(C)C#C[P+](c1ccccc1)(c1ccccc1)c1ccccc1	0.366 µM (active)	1.39 µM (inactive)	0.225 µM (active)	1.04 µM (active)	0.277 µM (active)	0.211 µM (active)	0.152 µM (active)	0.351 µM (active)	1.43 µM (inactive)	0.655 µM (active)	0.149 µM (active)	0.108 µM (active)	0.185 µM (active)	0.187 µM (active)	0.192 µM (active)	0.339 µM (active)	0.297 µM (active)			
CC(C)c1cc(OCC(O)CO)cc(C(C)C)c1 (stereo unspecified)	> 100 µM (inactive)	> 100 µM (inactive)	> 100 µM (inactive)	> 100 µM (inactive)	> 100 µM (inactive)	> 100 µM (inactive)	> 100 µM (inactive)	> 100 µM (inactive)	> 100 µM (inactive)	> 100 µM (inactive)	> 100 µM (inactive)	> 100 µM (inactive)	> 100 µM (inactive)	> 100 µM (inactive)	> 100 µM (inactive)	> 100 µM (inactive)	> 100 µM (inactive)			
COc1cc2c(c(OC)c1OC)-c1ccc(SC)c(=O)cc1C(NC=O)CC2 (stereo unspecified)	0.249 µM (active)	< 0.01 µM (active)	< 0.01 µM (active)	0.0188 µM (active)	< 0.01 µM (active)	66.4 µM (inactive)	< 0.0275 µM (active)	< 0.01 µM (active)	2.02 µM (inactive)	0.0371 µM (active)	< 0.01 µM (active)	0.015 µM (active)	< 0.01 µM (active)	< 0.01 µM (active)	< 0.01 µM (active)	< 0.01 µM (active)	< 0.01 µM (active)	< 0.01 µM (active)	< 0.01 µM (active)	< 0.01 µM (active)
Cc1csc2c1C(=O)c1ccsc1C2=O	1.52 µM (inactive)	2.98 µM (inactive)	0.778 µM (active)	2.87 µM (inactive)		1.89 µM (inactive)	2.47 µM (inactive)	2.07 µM (inactive)	19.1 µM (inactive)	20.4 µM (inactive)	4.15 µM (inactive)	4.03 µM (inactive)	2.99 µM (inactive)	0.589 µM (active)	2.2 µM (inactive)	4.27 µM (inactive)	1.69 µM (inactive)	2.58 µM (inactive)	1.81 µM (inactive)	0.293 µM (active)
CN(C)CCNC(=O)Cc1ccccc1Nc1c(Cl)cccc1Cl	12.8 µM (inactive)	19 µM (inactive)	17.3 µM (inactive)	12.6 µM (inactive)	15 µM (inactive)	20.1 µM (inactive)	18.2 µM (inactive)	17.2 µM (inactive)	13.7 µM (inactive)	17.6 µM (inactive)	15.2 µM (inactive)	14.3 µM (inactive)	18.9 µM (inactive)	15 µM (inactive)	15.1 µM (inactive)	17.7 µM (inactive)	18.3 µM (inactive)			
CCOC(=O)Cc1nc2ccccc2s1	17.3 µM (inactive)	17.1 µM (inactive)	16.6 µM (inactive)	15.8 µM (inactive)	22.9 µM (inactive)	> 10 µM (inactive)	19.2 µM (inactive)	> 10 µM (inactive)	27.5 µM (inactive)	50.9 µM (inactive)	20.1 µM (inactive)	18.8 µM (inactive)	17.5 µM (inactive)	20.6 µM (inactive)	16.8 µM (inactive)	18.1 µM (inactive)	17.9 µM (inactive)			
CO[C@@]12[C@H](COC(N)=O)C3=C(C(=O)C(C)=C(N)C3=O)N1C[C@H]1[C@@H]2N1C (stereo partly specified) [PORFIROMYCIN]	8.28 µM (inactive)	0.38 µM (active)	0.65 µM (active)	13.9 µM (inactive)	0.291 µM (active)	9.68 µM (inactive)	1.87 µM (inactive)	6.76 µM (inactive)	16.3 µM (inactive)	4.62 µM (inactive)	0.409 µM (active)	0.993 µM (active)	3.95 µM (inactive)	1.8 µM (inactive)	0.782 µM (active)	9.68 µM (inactive)	0.466 µM (active)	12.6 µM (inactive)	16.6 µM (inactive)	12.5 µM (inactive)
CCCCCCCCCCCCCCCC(=O)OCCOCCOCCOCCOCCOC(=O)CCCCCCCCCCCCCCC	> 100 µM (inactive)	> 100 µM (inactive)	> 100 µM (inactive)	> 100 µM (inactive)	> 100 µM (inactive)	> 100 µM (inactive)	> 100 µM (inactive)	> 100 µM (inactive)	> 100 µM (inactive)	> 100 µM (inactive)	> 100 µM (inactive)	> 100 µM (inactive)	> 100 µM (inactive)	> 100 µM (inactive)	> 100 µM (inactive)	> 100 µM (inactive)	> 100 µM (inactive)			
O=[N+]([O-])c1cc([N+](=O)[O-])c(C(Cl)C(Cl)c2ccccc2)cc1C(Cl)C(Cl)c1ccccc1 (stereo unspecified)	1.84 µM (inactive)	1.77 µM (inactive)	1.49 µM (inactive)	1.51 µM (inactive)	3.66 µM (inactive)	2.64 µM (inactive)	1.61 µM (inactive)	2.2 µM (inactive)	2.34 µM (inactive)	6.34 µM (inactive)	3.18 µM (inactive)	2.21 µM (inactive)	1.87 µM (inactive)	1.66 µM (inactive)	1.75 µM (inactive)	2.99 µM (inactive)	1.84 µM (inactive)			
